Paper PMC4901312, “Ecological factors drive natural selection pressure of avian aryl hydrocarbon receptor 1 genotypes” (Scientific Reports, 2016)

What was measured:
Experiment in all cases: luciferase reporter gene transactivation assay (ckCYP1A5 promoter) in transfected COS-7 cells; LOEC
Format in all cases: cell-based
[1] = target: T1, common cormorant AHR1 (ccAHR1) (Phalacrocorax carbo, UniProt Q76CM2)
T1 construct: gene AHR 1; full-length cDNA in pcDNA3.1 zeo (+), expressed in COS-7 cells; with chicken ARNT1 (ckARNT1)
T1 sequence (Q76CM2 1-860): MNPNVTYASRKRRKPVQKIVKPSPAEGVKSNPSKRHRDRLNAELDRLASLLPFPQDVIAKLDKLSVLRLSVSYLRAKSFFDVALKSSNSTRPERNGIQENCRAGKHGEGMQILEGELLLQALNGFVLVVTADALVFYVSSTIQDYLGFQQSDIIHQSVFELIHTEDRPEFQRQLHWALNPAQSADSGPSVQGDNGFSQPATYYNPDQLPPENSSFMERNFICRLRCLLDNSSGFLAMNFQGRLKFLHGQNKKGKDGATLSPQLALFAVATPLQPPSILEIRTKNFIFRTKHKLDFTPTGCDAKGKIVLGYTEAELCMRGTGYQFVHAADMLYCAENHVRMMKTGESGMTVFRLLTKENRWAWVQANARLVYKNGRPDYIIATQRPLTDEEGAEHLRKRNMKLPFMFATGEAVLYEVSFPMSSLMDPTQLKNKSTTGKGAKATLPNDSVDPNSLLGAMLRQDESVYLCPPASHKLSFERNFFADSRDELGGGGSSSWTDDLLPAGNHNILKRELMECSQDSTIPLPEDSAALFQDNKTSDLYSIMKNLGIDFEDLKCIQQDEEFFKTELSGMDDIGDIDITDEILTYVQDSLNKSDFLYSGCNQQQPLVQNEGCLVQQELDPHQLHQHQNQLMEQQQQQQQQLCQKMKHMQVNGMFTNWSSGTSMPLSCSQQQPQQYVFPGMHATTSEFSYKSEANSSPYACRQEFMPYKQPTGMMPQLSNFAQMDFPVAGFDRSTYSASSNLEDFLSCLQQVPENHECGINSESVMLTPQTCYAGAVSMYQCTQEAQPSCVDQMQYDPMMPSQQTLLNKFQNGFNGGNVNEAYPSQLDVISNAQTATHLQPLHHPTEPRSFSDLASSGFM

[2] = target: T2, black-footed albatross AHR1 (bfaAHR1) (Phoebastria nigripes, UniProt Q76EQ7)
T2 construct: full-length cDNA in pcDNA3.1 zeo (+), expressed in COS-7 cells; with chicken ARNT1 (ckARNT1)
T2 sequence (Q76EQ7 1-861): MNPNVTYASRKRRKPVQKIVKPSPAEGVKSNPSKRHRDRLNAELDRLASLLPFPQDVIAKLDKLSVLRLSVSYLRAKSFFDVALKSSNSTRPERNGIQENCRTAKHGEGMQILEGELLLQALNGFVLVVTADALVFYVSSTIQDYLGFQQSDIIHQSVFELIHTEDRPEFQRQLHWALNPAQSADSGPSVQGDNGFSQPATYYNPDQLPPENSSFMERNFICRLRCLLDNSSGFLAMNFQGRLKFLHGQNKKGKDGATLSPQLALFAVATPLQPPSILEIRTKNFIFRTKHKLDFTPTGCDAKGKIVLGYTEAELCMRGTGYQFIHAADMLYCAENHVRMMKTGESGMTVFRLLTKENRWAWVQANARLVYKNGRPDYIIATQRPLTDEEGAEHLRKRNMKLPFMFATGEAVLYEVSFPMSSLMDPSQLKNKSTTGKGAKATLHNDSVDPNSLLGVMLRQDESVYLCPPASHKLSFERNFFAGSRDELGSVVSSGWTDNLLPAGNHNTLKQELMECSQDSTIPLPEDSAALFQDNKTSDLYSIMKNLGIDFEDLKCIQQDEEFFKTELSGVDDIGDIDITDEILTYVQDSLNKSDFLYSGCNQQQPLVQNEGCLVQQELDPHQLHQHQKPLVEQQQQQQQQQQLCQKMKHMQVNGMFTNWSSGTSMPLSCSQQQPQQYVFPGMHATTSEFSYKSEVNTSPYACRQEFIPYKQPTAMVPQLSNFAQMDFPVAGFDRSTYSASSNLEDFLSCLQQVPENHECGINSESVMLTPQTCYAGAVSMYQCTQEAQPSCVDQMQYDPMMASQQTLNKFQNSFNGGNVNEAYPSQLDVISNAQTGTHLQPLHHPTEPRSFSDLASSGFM

chicken AHR1 (ckAHR1) = target: T3, chicken AHR1 (ckAHR1) (Gallus gallus, UniProt Q9I9E2)
T3 construct: full-length cDNA in pcDNA3.1 zeo (+), expressed in COS-7 cells; with chicken ARNT1 (ckARNT1)
T3 sequence (Q9I9E2 1-858): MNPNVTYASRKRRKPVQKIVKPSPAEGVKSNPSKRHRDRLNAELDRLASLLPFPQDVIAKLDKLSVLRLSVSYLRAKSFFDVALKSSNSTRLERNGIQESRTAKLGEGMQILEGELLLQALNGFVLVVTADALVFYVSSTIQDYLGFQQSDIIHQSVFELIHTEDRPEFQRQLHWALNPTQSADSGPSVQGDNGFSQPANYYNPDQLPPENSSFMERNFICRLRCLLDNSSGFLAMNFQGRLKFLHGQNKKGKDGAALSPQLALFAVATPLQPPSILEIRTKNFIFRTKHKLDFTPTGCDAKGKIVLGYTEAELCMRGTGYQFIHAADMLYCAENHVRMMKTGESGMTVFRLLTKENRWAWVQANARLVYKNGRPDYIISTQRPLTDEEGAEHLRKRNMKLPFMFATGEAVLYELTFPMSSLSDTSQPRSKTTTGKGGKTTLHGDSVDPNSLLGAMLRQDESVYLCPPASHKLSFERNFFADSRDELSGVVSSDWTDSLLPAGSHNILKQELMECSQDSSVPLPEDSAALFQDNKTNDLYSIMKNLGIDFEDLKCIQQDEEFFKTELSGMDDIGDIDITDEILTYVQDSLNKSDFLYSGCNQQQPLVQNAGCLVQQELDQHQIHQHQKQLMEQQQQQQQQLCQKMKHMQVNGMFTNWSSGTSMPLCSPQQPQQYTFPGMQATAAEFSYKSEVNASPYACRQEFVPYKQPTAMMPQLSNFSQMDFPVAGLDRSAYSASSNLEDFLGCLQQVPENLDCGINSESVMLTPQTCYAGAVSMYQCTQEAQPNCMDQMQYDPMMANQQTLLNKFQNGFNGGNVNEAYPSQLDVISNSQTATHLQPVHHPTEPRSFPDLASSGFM

Brc1ccc2c(c1)Oc1cc(Br)cc(Br)c1O2 [1,3,7-TriBDD, 1,3,7-tribromodibenzo-p-dioxin]
luciferase reporter gene transactivation assay (ckCYP1A5 promoter) in transfecte [1]: 120 nM | luciferase reporter gene transactivation assay (ckCYP1A5 promoter) in transfecte [2]: 12 nM | luciferase reporter gene transactivation assay (ckCYP1A5 promoter) in transfecte (chicken AHR1 (ckAHR1)): 1.2 nM
